Reference: the supplement of paper PMC11368000

Legend:
Conditions in all cases: exposure time: 90 min
30145 [1] = donor line of iPSC-derived cardiomyocytes; assay: POD (EC95) for loss of peak frequency (asystole) vs vehicle; higher = less potent (higher point of departure)
Description: (§1)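 Human iPSC-derived cardiomyocytes from 16 donors were exposed for 90 min at 37 °C to each PFAS at 0.1, 1, 10 and 100 µM in 0.5% DMSO, 384-well plates. Kinetic Ca2+ flux (FLIPR) and Hoechst nuclei counts were normalised to vehicle wells and fitted with a hierarchical Bayesian Hill model to give donor-specific PODs: EC05 for beat-rate increase or decrease and for decay-to-rise ratio increase (QT proxy), EC95 for peak-frequency loss (asystole), EC10 for total cell number loss. 0.03 µM is the lower bound.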

11235 = donor line of iPSC-derived cardiomyocytes; assay: as above
Description: as §1

1083 = donor line of iPSC-derived cardiomyocytes; assay: as above
Description: as §1

1531 [2] = donor line of iPSC-derived cardiomyocytes; assay: as above
Description: as §1

1392 = donor line of iPSC-derived cardiomyocytes; assay: as above
Description: as §1

1565 = donor line of iPSC-derived cardiomyocytes; assay: as above
Description: as §1

1118 = donor line of iPSC-derived cardiomyocytes; assay: as above
Description: as §1

1518 [3] = donor line of iPSC-derived cardiomyocytes; assay: as above
Description: as §1

1535 = donor line of iPSC-derived cardiomyocytes; assay: as above
Description: as §1

1368 = donor line of iPSC-derived cardiomyocytes; assay: as above
Description: as §1

20084 = donor line of iPSC-derived cardiomyocytes; assay: as above
Description: as §1

30171 = donor line of iPSC-derived cardiomyocytes; assay: as above
Description: as §1

1434 = donor line of iPSC-derived cardiomyocytes; assay: as above
Description: as §1

1309 = donor line of iPSC-derived cardiomyocytes; assay: as above
Description: as §1

20032 = donor line of iPSC-derived cardiomyocytes; assay: as above
Description: as §1

1516 [4] = donor line of iPSC-derived cardiomyocytes; assay: as above
Description: as §1

30145 [5] = assay: POD (EC05) for increase in beat frequency (positive chronotrope) vs vehicle; higher = less potent (higher point of departure)
Summary of the method: (§2)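 Human iPSC-derived cardiomyocytes from 16 donors, dye-loaded for Ca2+, were treated for 90 min at 37 °C at final concentrations of 0.1, 1, 10 and 100 µM in 0.5% DMSO. Ca2+ flux was measured on a FLIPR Tetra before and after treatment. Hierarchical Bayesian Hill fitting of vehicle-normalised beat frequency, decay-to-rise ratio or peak frequency yielded donor-specific points of departure. Thresholds: 5% change, or 95% loss for peak frequency.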

1516 [6] = assay: POD (EC05) for increase in Ca2+ transient decay-to-rise ratio (QT prolongation) vs vehicle; higher = less potent (higher point of departure)
Summary of the method: as §2

1518 [7] = assay: as above
Summary of the method: as §2

1531 [8] = assay: as above
Summary of the method: as §2

Structure (SMILES) | POD vs vehicle 30145 [1] [µM] | POD vs vehicle 11235 [µM] | POD vs vehicle 1083 [µM] | POD vs vehicle 1531 [2] [µM] | POD vs vehicle 1392 [µM] | POD vs vehicle 1565 [µM] | POD vs vehicle 1118 [µM] | POD vs vehicle 1518 [3] [µM] | POD vs vehicle 1535 [µM] | POD vs vehicle 1368 [µM] | POD vs vehicle 20084 [µM] | POD vs vehicle 30171 [µM] | POD vs vehicle 1434 [µM] | POD vs vehicle 1309 [µM] | POD vs vehicle 20032 [µM] | POD vs vehicle 1516 [4] [µM] | POD vs vehicle 30145 [5] [µM] | POD vs vehicle 1516 [6] [µM] | POD vs vehicle 1518 [7] [µM] | POD vs vehicle 1531 [8] [µM]
NC(=O)C(F)(F)C(F)(F)C(F)(F)F [Heptafluorobutyramide] | > 100 | > 100 | > 100 | > 100 | > 100 | > 100 | > 100 | > 100 | > 100 | > 100 | > 100 | > 100 | > 100 | > 100 | > 100 | > 100 |  |  |  | 
N=C(N)C(F)(F)C(F)(F)C(F)(F)C(F)(F)C(F)(F)C(F)(F)C(F)(F)F [Perfluorooctanamidine] | > 100 | > 100 | > 100 | > 100 | > 100 | > 100 | 25.6 | > 100 | > 100 | > 100 | > 100 | > 100 | > 100 | > 100 | > 100 | > 100 | > 100 | > 100 |  | 
OCC(F)(F)C(F)(F)C(F)(F)C(F)(F)C(F)(F)C(F)(F)F [6:1 Fluorotelomer alcohol] | > 100 | 70.2 | 84.3 | > 100 | > 100 | > 100 | 1.75 | > 100 | > 100 | > 100 | > 100 | 80.8 | 75.4 | > 100 | > 100 | > 100 | > 100 | > 100 |  | 
O=C(O)C(F)(F)OC(F)(F)C(F)(F)OC(F)(F)C(=O)O [Perfluoro-3,6-dioxaoctane-1,8-dioic_acid] | > 100 | > 100 | > 100 | > 100 | > 100 | > 100 | > 100 | > 100 | > 100 | > 100 | > 100 | > 100 | > 100 | > 100 | > 100 | > 100 | > 100 | > 100 | > 100 | 
O=C(O)C(F)(F)C(F)(F)C(F)(F)C(F)(F)C(=O)O [Octafluoroadipic_acid] | > 100 | > 100 | > 100 | > 100 | > 100 | > 100 | > 100 | > 100 | > 100 | > 100 | > 100 | > 100 | > 100 | > 100 | > 100 | > 100 | > 100 | > 100 | > 100 | 
OCC(F)(F)C(F)(F)C(F)(F)F [Heptafluorobutanol] | > 100 | > 100 | > 100 | > 100 | > 100 | > 100 | > 100 | > 100 | > 100 | > 100 | > 100 | > 100 | > 100 | > 100 | > 100 | > 100 |  |  |  | > 100
OCC(F)(F)C(F)(F)C(F)(F)CO [Hexafluoroamylene_glycol] | > 100 | > 100 | > 100 | > 100 | > 100 | > 100 | > 100 | > 100 | > 100 | > 100 | > 100 | > 100 | > 100 | > 100 | > 100 | > 100 |  |  |  | > 100
NC(=O)C(F)(F)C(F)(F)C(F)(F)C(F)(F)F [Nonafluoropentanamide] | > 100 | > 100 | > 100 | > 100 | > 100 | > 100 | 84.9 | > 100 | > 100 | > 100 | > 100 | > 100 | > 100 | > 100 | > 100 | > 100 | > 100 | > 100 | 0.612 | 
OCC(F)(F)OC(F)(F)C(F)(F)OC(F)(F)C(F)(F)OC(F)(F)F [Fluorinated_triethylene_glycol_monomethyl_ether] | > 100 | > 100 | > 100 | > 100 | > 100 | > 100 | 9.61 | > 100 | > 100 | > 100 | > 100 | > 100 | > 100 | > 100 | > 100 | > 100 |  | > 100 | > 100 | 
O=S(=O)(OCC(F)(F)F)C(F)(F)C(F)(F)C(F)(F)C(F)(F)F [2,2,2-Trifluoroethyl_perfluorobutanesulfonate] | > 100 | > 100 | > 100 | > 100 | > 100 | > 100 | > 100 | > 100 | > 100 | > 100 | > 100 | > 100 | > 100 | > 100 | > 100 | > 100 | > 100 |  |  | 
O=C([O-])C(F)(F)C(F)(F)C(F)(F)C(F)(F)C(F)(F)C(F)(F)C(F)(F)F.[NH4+] [Ammonium_perfluorooctanoate] | > 100 | 72.4 | > 100 | > 100 | > 100 | > 100 | > 100 | > 100 | > 100 | > 100 | > 100 | > 100 | > 100 | > 100 | > 100 | > 100 |  | > 100 |  | 
